Data on 17 compounds can be found in patent publication US8975417B2, “Pyrazolopyrrolidine derivatives and their use in the treatment of disease” (Novartis AG, priority 2013, dated 2015).

The target in test [1] is His-Brd4(44-477) (Homo sapiens (Human), UniProt O60885). Description: TR-FRET in-vitro binding assay for BRD4. The note with it: biochemical. Summed up:
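Eight-point dilution series tested against in-house His-BRD2(60-472), BRD3(20-477) or BRD4(44-477) (45 nM in dispensed solution) binding acetyl-histone H4 (AcK5,8,12,16; 60 nM in dispensed solution). Incubation 35 min at 30 °C, pH 7.5 HEPES buffer; detection by TR-FRET using Eu-anti-His6 and streptavidin-allophycocyanin.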

Test [2] addresses His-CREBBP (1081-1197) bromodomain (Homo sapiens (Human), UniProt Q92793). Description: AlphaScreen in-vitro binding assay for CREBBP. Particulars: biochemical. Summed up:
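Ni-chelate acceptor and streptavidin donor beads (45 µg/mL each, in 50 mM HEPES pH 7.5, 150 mM NaCl, 0.02% BSA) were then added for 60 min at room temperature. IC50 came from 8-point non-linear regression.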

Test [3] deals with MV-4-11 cells. Description: Cell growth inhibition assay (CellTiter-Glo), MV-4-11. In kind it is cell-based. Particulars: Homo sapiens, MV4-11, read-out: MV-4-11 TGI. Summed up:
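Luminescent ATP quantification served as the viability read-out following incubation at 37° C. under 5% CO2. A day-0 reference plate allowed scaling from −100% (medium) to 100% (0.1% DMSO vehicle), with IC50 and TGI fitted by a four-parameter model.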

His-CREBBP (1081-1197) bromodomain, sequence (Q92793 1081-1197): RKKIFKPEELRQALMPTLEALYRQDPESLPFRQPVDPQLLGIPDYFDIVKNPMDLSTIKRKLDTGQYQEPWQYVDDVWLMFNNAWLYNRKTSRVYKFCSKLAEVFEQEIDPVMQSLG

On to `COc1ncc(-n2nc(C)c3c2C(=O)N(c2cc(C)c(=O)n(C)c2)C3c2ccc(Cl)cc2)c(OC)n1` (racemic) [Example 52, 4-(4-chlorophenyl)-1-(2,4-dimethoxypyrimidin-5-yl)-5-(1,5-dimethyl-6-oxo-1,6-dihydropyridin-3-yl)-3-methyl-4,5-dihydropyrrolo[3,4-c]pyrazol-6(1H)-one], for which the IC50 was determined as 87 nM in test [1] and 5700 nM in test [2].
Consider `Cc1nn(-c2ccnn2C)c2c1C(c1ccc(Cl)cc1)N(c1cc(C)c(=O)n(C)c1)C2=O` (racemic) [Example 74, 4-(4-chlorophenyl)-5-(1,5-dimethyl-6-oxo-1,6-dihydropyridin-3-yl)-3-methyl-1-(1-methyl-1H-pyrazol-5-yl)-4,5-dihydropyrrolo[3,4-c]pyrazol-6(1H)-one], for which the IC50 worked out at 67 nM in test [1] and 6400 nM in test [2].
In the case of `Cc1cc(N2C(=O)c3c(cnn3C3CC3)C2c2ccc(Cl)cc2)cn(C)c1=O` (stereo not shown) [Example 34, 4-(4-chlorophenyl)-1-cyclopropyl-5-(1,5-dimethyl-6-oxo-1,6-dihydropyridin-3-yl)-4,5-dihydropyrrolo[3,4-c]pyrazol-6(1H)-one], the IC50 in test [1] was found to be 110 nM; in test [2], 5200 nM. Moreover, in test [3], the IC (total growth inhibition) is 0.14 µM.
Taken in the same sequence, the figures for `Cn1cc(N2C(=O)c3c(c(C(F)(F)F)nn3C3CC3)C2c2ccc(Cl)cc2)cc(Cl)c1=O` (stereo not shown) [Example 44, 5-(5-chloro-1-methyl-6-oxo-1,6-dihydropyridin-3-yl)-4-(4-chlorophenyl)-1-cyclopropyl-3-(trifluoromethyl)-4,5-dihydropyrrolo[3,4-c]pyrazol-6(1H)-one] were 210 nM, 3900 nM and 0.329 µM.
In the same order, the values of `Cc1nn(C2CC2)c2c1[C@@H](c1ccc(Cl)cc1)N(c1cc(C)c(=O)n(C)c1)C2=O` [Example 49, (R)-4-(4-chlorophenyl)-1-cyclopropyl-5-(1,5-dimethyl-6-oxo-1,6-dihydropyridin-3-yl)-3-methyl-4,5-dihydropyrrolo[3,4-c]pyrazol-6(1H)-one] are 17 nM, 1300 nM and 0.0394 µM.
In the same order, the values of `Cc1nn(C2CC2)c2c1[C@@H](c1ccc(Cl)cc1)N(c1cc(Cl)c(=O)n(C)c1)C2=O` [Example 51, (R)-5-(5-chloro-1-methyl-6-oxo-1,6-dihydropyridin-3-yl)-4-(4-chlorophenyl)-1-cyclopropyl-3-methyl-4,5-dihydropyrrolo[3,4-c]pyrazol-6(1H)-one] are 20 nM, 1400 nM and 0.0883 µM.
For the compound `COc1ncc(-n2nc3c(c2C(C)C)C(c2ccc(Cl)cc2)N(c2ccc4onc(C)c4c2)C3=O)c(OC)n1` (stereo not shown) [Example 54, 4-(4-chlorophenyl)-2-(2,4-dimethoxypyrimidin-5-yl)-3-isopropyl-5-(3-methylbenzo-[d]isoxazol-5-yl)-4,5-dihydropyrrolo[3,4-c]pyrazol-6(2H)-one], the IC50 in test [1] was 260 nM; in test [2], above 37000 nM. Further, the IC (total growth inhibition) in test [3] came to 0.661 µM.
For `COc1ncc(-n2nc3c(c2C)C(c2ccc(Cl)cc2)N(c2cc(Cl)c(=O)n(C)c2)C3=O)c(OC)n1` (stereo not shown) [Example 55, 5-(5-chloro-1-methyl-6-oxo-1,6-dihydropyridin-3-yl)-4-(4-chlorophenyl)-2-(2,4-dimethoxypyrimidin-5-yl)-3-methyl-4,5-dihydropyrrolo[3,4-c]pyrazol-6(2H)-one], the IC50 in test [1] stood at 150 nM; in test [2] it was 600 nM. Also, the IC (total growth inhibition) in test [3] came out at 0.123 µM.
Taken in the same sequence, the figures for `CCc1nn(C2CC2)c2c1C(c1ccc(Cl)cc1)N(c1cc(C)c3nnc(C)n3c1)C2=O` (stereo not shown) [Example 70, 4-(4-chlorophenyl)-1-cyclopropyl-5-(3,8-dimethyl-[1,2,4]triazolo[4,3-a]pyridin-6-yl)-3-ethyl-4,5-dihydropyrrolo[3,4-c]pyrazol-6(1H)-one] were 24 nM, 11000 nM and 0.0131 µM.
Taken in the same sequence, the figures for `COc1ncccc1-n1nc(C)c2c1C(=O)N(c1cc(Cl)c(=O)n(C)c1)C2c1ccc(Cl)cc1` (stereo not shown) [Example 72, 5-(5-chloro-1-methyl-6-oxo-1,6-dihydropyridin-3-yl)-4-(4-chlorophenyl)-1-(2-methoxypyridin-3-yl)-3-methyl-4,5-dihydropyrrolo[3,4-c]pyrazol-6(1H)-one] were 79 nM, 8200 nM and 0.164 µM.
In the same order, the values of `Cc1cc(N2C(=O)c3nn(C)c(O)c3C2c2ccc(Cl)cc2)cn(C)c1=O` (stereo not shown) [Example 73, 4-(4-chlorophenyl)-5-(1,5-dimethyl-6-oxo-1,6-dihydropyridin-3-yl)-3-hydroxy-2-methyl-4,5-dihydropyrrolo[3,4-c]pyrazol-6(2H)-one] are 210 nM, 2000 nM and 4.4 µM.
Turning to `CCOc1c2c(nn1C)C(=O)N(c1cc(C)c(=O)n(C)c1)C2c1ccc(Cl)cc1` (stereo not shown) [Example 76, 4-(4-chlorophenyl)-5-(1,5-dimethyl-6-oxo-1,6-dihydropyridin-3-yl)-3-ethoxy-2-methyl-4,5-dihydropyrrolo[3,4-c]pyrazol-6(2H)-one], the IC50 was determined as 120 nM in test [1] and 2900 nM in test [2]. Also, in test [3], the IC (total growth inhibition) was determined as 0.107 µM.
In the same order, the values of `COc1c2c(nn1C)C(=O)N(c1cc(C)c(=O)n(C)c1)C2c1ccc(Cl)cc1` (stereo not shown) [Example 77, 4-(4-chlorophenyl)-5-(1,5-dimethyl-6-oxo-1,6-dihydropyridin-3-yl)-3-methoxy-2-methyl-4,5-dihydropyrrolo[3,4-c]pyrazol-6(2H)-one] are 130 nM, 1900 nM and 0.132 µM.
Taken in the same sequence, the figures for `CCc1nn(CCO)c2c1C(c1ccc(Cl)cc1)N(c1cc(C)c(=O)n(C)c1)C2=O` (stereo not shown) [Example 78, 4-(4-chlorophenyl)-5-(1,5-dimethyl-6-oxo-1,6-dihydropyridin-3-yl)-3-ethyl-1-(2-hydroxyethyl)-4,5-dihydropyrrolo[3,4-c]pyrazol-6(1H)-one] were 63 nM, 3100 nM and 0.0855 µM.
In the same order, the values of `CCc1nn(CCO)c2c1C(c1ccc(Cl)cc1)N(c1cc(C)c3onc(C)c3c1)C2=O` (stereo not shown) [Example 79, 4-(4-chlorophenyl)-5-(3,7-dimethylbenzo[d]isoxazol-5-yl)-3-ethyl-1-(2-hydroxyethyl)-4,5-dihydropyrrolo[3,4-c]pyrazol-6(1H)-one] are 78 nM, 11000 nM and 0.42 µM.
In the case of `CCc1c2c(nn1CCO)C(=O)N(c1cc(C)c3onc(C)c3c1)C2c1ccc(Cl)cc1` (stereo not shown) [Example 80, 4-(4-chlorophenyl)-5-(3,7-dimethylbenzo[d]isoxazol-5-yl)-3-ethyl-2-(2-hydroxyethyl)-4,5-dihydropyrrolo[3,4-c]pyrazol-6(2H)-one], the IC50 in test [1] came to 35 nM; in test [2], 5000 nM. Moreover, the IC (total growth inhibition) in test [3] was found to be 0.472 µM.
In the same order, the values of `Cc1ncccc1-n1nc2c(c1C)C(c1ccc(Cl)cc1)N(c1cc(C)c(=O)n(C)c1)C2=O` (stereo not shown) [Example 81, 4-(4-chlorophenyl)-5-(1,5-dimethyl-6-oxo-1,6-dihydropyridin-3-yl)-3-methyl-2-(2-methylpyridin-3-yl)-4,5-dihydropyrrolo[3,4-c]pyrazol-6(2H)-one] are 110 nM, 920 nM and 0.13 µM.
